In paper PMC9042912, “T cell receptor and IL-2 signaling strength control memory CD8^+ T cell functional fitness via chromatin remodeling” (Nature Communications, 2022):
“And” between values parts separate entries of the source, which are not always exact repeats. Equal entries are not always repeated. Where two headings read alike, the source gives them in different places. No end group written: not given here.

Tests used:
H2-K^b = biological target: T1, H2-K^b (Mus musculus, UniProt P01901); test: cell-based
T1 construct: RMA-S cells were added per well to a 96-well flat-bottom plate and incubated at 30 °C overnight; endogenous in cells; host or cells: RMA-S cells (TAP-deficient), obtained from Dr. Steve Porcelli
T1 sequence (P01901 22-369): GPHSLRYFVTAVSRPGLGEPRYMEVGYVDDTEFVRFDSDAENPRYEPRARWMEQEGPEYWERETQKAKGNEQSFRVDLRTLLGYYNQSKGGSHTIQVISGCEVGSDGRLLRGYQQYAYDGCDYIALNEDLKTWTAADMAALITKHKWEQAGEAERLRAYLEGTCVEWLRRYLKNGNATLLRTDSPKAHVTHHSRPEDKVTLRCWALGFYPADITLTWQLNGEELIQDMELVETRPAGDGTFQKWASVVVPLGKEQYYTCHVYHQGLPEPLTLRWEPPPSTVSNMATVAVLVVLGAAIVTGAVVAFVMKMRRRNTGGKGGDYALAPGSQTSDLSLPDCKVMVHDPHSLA
T1 sequence (P01887 21-119 partner): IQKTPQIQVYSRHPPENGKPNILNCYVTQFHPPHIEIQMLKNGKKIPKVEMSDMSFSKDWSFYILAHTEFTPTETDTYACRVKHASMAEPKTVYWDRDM

[1] = test system: OT-I, gBT-I, P14, L9.6 T cells; settings: mouse
H2-D^b = H2-D^b (Mus musculus, UniProt P01899); format: cell-based
Sequence of H2-D^b (P01899 25-362, one chain of several): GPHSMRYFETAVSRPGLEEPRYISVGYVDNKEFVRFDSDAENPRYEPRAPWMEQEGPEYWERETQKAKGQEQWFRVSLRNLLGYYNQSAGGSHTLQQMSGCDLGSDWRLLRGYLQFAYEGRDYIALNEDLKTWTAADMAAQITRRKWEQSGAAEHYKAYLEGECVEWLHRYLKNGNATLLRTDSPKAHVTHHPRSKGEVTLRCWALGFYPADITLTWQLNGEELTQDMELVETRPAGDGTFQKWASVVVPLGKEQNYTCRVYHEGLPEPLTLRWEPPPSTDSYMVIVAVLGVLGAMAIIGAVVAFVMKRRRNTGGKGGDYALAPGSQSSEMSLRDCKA

OT-I cells = format: in vivo, mouse; settings: for % Il2ra mut/mut among OT-I / % WT among OT-I: individual values

Compound: CC[C@H](C)[C@H](NC(=O)[C@@H](NC(=O)[C@@H](N)CO)[C@@H](C)CC)C(=O)N[C@@H](CC(N)=O)C(=O)N[C@@H](Cc1ccccc1)C(=O)N[C@@H](CCC(=O)O)C(=O)N[C@@H](CCCCN)C(=O)N[C@@H](CC(C)C)C(=O)O [N4]
- Kd (H2-K^b): 111 nM

Compound: KAVYNFATC [GP33-41]
- duration for which the Lm-expressed epitope induces naïve T cell proliferation in vivo [1]: ~ 2 days
- formation of stable complexes with D^b (H2-D^b): form stable MHC class I complexes

Compound: SIIQFEKL [Q4]
- Kd (H2-K^b): 65 nM

Compound: SIITFEKL [T4]
- Kd (H2-K^b): 59 nM

Compound: SSIEFARL [gB498-505]
- Kd (H2-K^b): 32 nM

Compound: diphtheria toxin [DT]
- decrease of primary OT-I cell expansion (OT-I cells; CD11c+ cell depletion 2 days after Lm-Ova infection): ~ 50%
- % Il2ra mut/mut among OT-I (OT-I cells; Memory + DT): 29.30% and 45.50% and 51.90% and 25.10% and 25.90% and 50.30% and 56.40%
- % WT among OT-I (OT-I cells; Memory + DT): 70.10% and 54.40% and 47.80% and 74.30% and 73.60% and 49.50% and 43.40%
- % Il2ra mut/mut among OT-I (OT-I cells; Primary + DT): 4.26% and 7.74% and 13.10% and 8.93% and 11.40% and 29.60% and 21.10% and 24.20% and 24.80% and 4.23%
- % WT among OT-I (OT-I cells; Primary + DT): 91.80% and 86.30% and 90.50% and 87.80% and 89.00% and 69.30% and 77.20% and 73.40% and 64.60% and 95.20% and 95.30%
- % OT-I (OT-I cells; depletion of CD11c+ cells in CD11c-DTR mice, compared with control group, each value one mouse (Suppl. Fig. 4B)): 4.98% and 8.05% and 8.87% and 13.60%
